In PubChem BioAssay (NCI):
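Grown in 96-well plates, cells were treated for 48 hours with each compound at five concentrations. Insufficient inhibition: endpoint recorded as highest concentration tested. At the GI50, growth is halved. TGI is the concentration that stops growth completely.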

Legend:
Test in all cases: DTP human tumour cell line panel, 48 h
TK-10 renal = tested on: TK-10 renal
HS 578T breast = tested on: HS 578T breast
SW-620 colon = tested on: SW-620 colon
HCC-2998 colon = tested on: HCC-2998 colon
LOX IMVI melanoma = tested on: LOX IMVI melanoma
NCI-H226 lung = tested on: NCI-H226 lung
NCI-H522 lung = tested on: NCI-H522 lung
MDA-MB-435 = tested on: MDA-MB-435
UACC-257 melanoma = tested on: UACC-257 melanoma
HCT-15 colon = tested on: HCT-15 colon
SR leukemia = tested on: SR leukemia
OVCAR-5 ovarian = tested on: OVCAR-5 ovarian
HOP-92 NSCLC = tested on: HOP-92 NSCLC
A549 NSCLC = tested on: A549 NSCLC
HOP-62 NSCLC = tested on: HOP-62 NSCLC
CAKI-1 renal = tested on: CAKI-1 renal
UO-31 renal = tested on: UO-31 renal
RPMI-8226 leukemia = tested on: RPMI-8226 leukemia
NCI-H23 lung = tested on: NCI-H23 lung
CCRF-CEM leukemia = tested on: CCRF-CEM leukemia
PC-3 prostate = tested on: PC-3 prostate
SK-MEL-2 melanoma = tested on: SK-MEL-2 melanoma
MDA-MB-231 breast = tested on: MDA-MB-231 breast
EKVX NSCLC = tested on: EKVX NSCLC
KM12 colon = tested on: KM12 colon
SK-MEL-28 melanoma = tested on: SK-MEL-28 melanoma
SK-MEL-5 melanoma = tested on: SK-MEL-5 melanoma
SN12C renal = tested on: SN12C renal
SK-OV-3 ovarian = tested on: SK-OV-3 ovarian
UACC-62 melanoma = tested on: UACC-62 melanoma
HL-60(TB) leukemia = tested on: HL-60(TB) leukemia
786-0 renal = tested on: 786-0 renal
MCF7 breast = tested on: MCF7 breast
COLO 205 colon = tested on: COLO 205 colon
MDA-MB-468 breast = tested on: MDA-MB-468 breast
OVCAR-4 ovarian = tested on: OVCAR-4 ovarian
BT-549 breast = tested on: BT-549 breast
HCT-116 colon = tested on: HCT-116 colon
MOLT-4 leukemia = tested on: MOLT-4 leukemia
SNB-75 CNS = tested on: SNB-75 CNS
SNB-19 CNS = tested on: SNB-19 CNS
ACHN renal = tested on: ACHN renal
HT29 colon = tested on: HT29 colon
M14 melanoma = tested on: M14 melanoma
T-47D breast = tested on: T-47D breast
OVCAR-3 ovarian = tested on: OVCAR-3 ovarian
A498 renal = tested on: A498 renal
OVCAR-8 ovarian = tested on: OVCAR-8 ovarian
MALME-3M melanoma = tested on: MALME-3M melanoma
SF-268 CNS = tested on: SF-268 CNS
NCI-H460 lung = tested on: NCI-H460 lung
RXF 393 renal = tested on: RXF 393 renal
SF-295 CNS = tested on: SF-295 CNS
DU-145 prostate = tested on: DU-145 prostate
U251 CNS = tested on: U251 CNS
K-562 leukemia = tested on: K-562 leukemia

Compound Cc1ccc(C(=O)Nc2ccc(-n3ccnc3)c(C(F)(F)F)c2)cc1C#Cc1cnc2cccnn12 has a GI50 (TK-10 renal) of 2.91 µM, a TGI (TK-10 renal) greater than 45.8 µM and a GI50 (HS 578T breast) of 0.713 µM. It also gave a TGI (HS 578T breast) of 2.93 µM, a GI50 (SW-620 colon) of 1.19 µM and a TGI (SW-620 colon) greater than 45.8 µM. For the same compound, the GI50 (HCC-2998 colon) was 1.13 µM, the TGI (HCC-2998 colon) was greater than 45.8 µM and the GI50 (LOX IMVI melanoma) was 0.637 µM. The TGI (LOX IMVI melanoma) was greater than 45.8 µM, the GI50 (NCI-H226 lung) was 0.567 µM and the TGI (NCI-H226 lung) was 14.4 µM. It also gave a GI50 (NCI-H522 lung) of 0.851 µM, a TGI (NCI-H522 lung) of 3.36 µM and a GI50 (MDA-MB-435) of 1.1 µM. For the same compound, the TGI (MDA-MB-435) was greater than 45.8 µM, the GI50 (UACC-257 melanoma) was 1.19 µM and the TGI (UACC-257 melanoma) was greater than 45.8 µM. For the same compound, the GI50 (HCT-15 colon) was 1.29 µM, the TGI (HCT-15 colon) was greater than 45.8 µM and the GI50 (SR leukemia) was 1.33 µM. The TGI (SR leukemia) was greater than 45.8 µM, the GI50 (OVCAR-5 ovarian) was 1.02 µM and the TGI (OVCAR-5 ovarian) was greater than 45.8 µM. The GI50 (HOP-92 NSCLC) was 0.702 µM, the TGI (HOP-92 NSCLC) was 3.1 µM and the GI50 (A549 NSCLC) was 1.82 µM. It also gave a TGI (A549 NSCLC) greater than 45.8 µM, a GI50 (HOP-62 NSCLC) of 1.36 µM and a TGI (HOP-62 NSCLC) greater than 45.8 µM. For the same compound, the GI50 (CAKI-1 renal) was 1.42 µM, the TGI (CAKI-1 renal) was 16 µM and the GI50 (UO-31 renal) was 0.702 µM. It also gave a TGI (UO-31 renal) greater than 45.8 µM, a GI50 (RPMI-8226 leukemia) of 0.83 µM and a TGI (RPMI-8226 leukemia) of 3.6 µM. It also gave a GI50 (NCI-H23 lung) of 1.02 µM, a TGI (NCI-H23 lung) greater than 45.8 µM and a GI50 (CCRF-CEM leukemia) of 1.38 µM. For the same compound, the TGI (CCRF-CEM leukemia) was greater than 45.8 µM, the GI50 (PC-3 prostate) was 1.55 µM and the TGI (PC-3 prostate) was 12.1 µM. For the same compound, the GI50 (SK-MEL-2 melanoma) was 0.458 µM, the TGI (SK-MEL-2 melanoma) was 2.51 µM and the GI50 (MDA-MB-231 breast) was 0.331 µM. It also gave a TGI (MDA-MB-231 breast) of 3.21 µM, a GI50 (EKVX NSCLC) of 3.11 µM and a TGI (EKVX NSCLC) greater than 45.8 µM. The GI50 (KM12 colon) was 0.203 µM, the TGI (KM12 colon) was greater than 45.8 µM and the GI50 (SK-MEL-28 melanoma) was 0.79 µM. The TGI (SK-MEL-28 melanoma) was 5.78 µM, the GI50 (SK-MEL-5 melanoma) was 1.27 µM and the TGI (SK-MEL-5 melanoma) was 4.92 µM. It also gave a GI50 (SN12C renal) of 1.06 µM, a TGI (SN12C renal) greater than 45.8 µM and a GI50 (SK-OV-3 ovarian) of 5.18 µM. For the same compound, the TGI (SK-OV-3 ovarian) was greater than 45.8 µM, the GI50 (UACC-62 melanoma) was 0.495 µM and the TGI (UACC-62 melanoma) was 1.62 µM. For the same compound, the GI50 (HL-60(TB) leukemia) was 0.215 µM, the TGI (HL-60(TB) leukemia) was 1.54 µM and the GI50 (786-0 renal) was 2.7 µM. It also gave a TGI (786-0 renal) greater than 45.8 µM, a GI50 (MCF7 breast) of 2.14 µM and a TGI (MCF7 breast) greater than 45.8 µM. The GI50 (COLO 205 colon) was 1.22 µM, the TGI (COLO 205 colon) was greater than 45.8 µM and the GI50 (MDA-MB-468 breast) was 1.57 µM. The TGI (MDA-MB-468 breast) was greater than 45.8 µM, the GI50 (OVCAR-4 ovarian) was 1.3 µM and the TGI (OVCAR-4 ovarian) was greater than 45.8 µM. It also gave a GI50 (BT-549 breast) of 1.42 µM, a TGI (BT-549 breast) of 4.08 µM and a GI50 (HCT-116 colon) of 0.917 µM. The TGI (HCT-116 colon) was greater than 45.8 µM, the GI50 (MOLT-4 leukemia) was 0.822 µM and the TGI (MOLT-4 leukemia) was 3.51 µM. It also gave a GI50 (SNB-75 CNS) of 0.69 µM, a TGI (SNB-75 CNS) of 5.75 µM and a GI50 (SNB-19 CNS) of 6.06 µM. It also gave a TGI (SNB-19 CNS) greater than 45.8 µM, a GI50 (ACHN renal) of 1.64 µM and a TGI (ACHN renal) of 20.5 µM. For the same compound, the GI50 (HT29 colon) was 0.915 µM, the TGI (HT29 colon) was greater than 45.8 µM and the GI50 (M14 melanoma) was 0.567 µM. For the same compound, the TGI (M14 melanoma) was greater than 45.8 µM, the GI50 (T-47D breast) was 0.943 µM and the TGI (T-47D breast) was 4.11 µM. For the same compound, the GI50 (OVCAR-3 ovarian) was 2.38 µM, the TGI (OVCAR-3 ovarian) was greater than 45.8 µM and the GI50 (A498 renal) was 2.69 µM. It also gave a TGI (A498 renal) greater than 45.8 µM, a GI50 (OVCAR-8 ovarian) of 1.32 µM and a TGI (OVCAR-8 ovarian) greater than 45.8 µM. For the same compound, the GI50 (MALME-3M melanoma) was 0.198 µM, the TGI (MALME-3M melanoma) was 1.72 µM and the GI50 (SF-268 CNS) was 1.98 µM. For the same compound, the TGI (SF-268 CNS) was greater than 45.8 µM, the GI50 (NCI-H460 lung) was 1.73 µM and the TGI (NCI-H460 lung) was greater than 45.8 µM. It also gave a GI50 (RXF 393 renal) of 1.12 µM, a TGI (RXF 393 renal) of 3.31 µM and a GI50 (SF-295 CNS) of 1.27 µM. It also gave a TGI (SF-295 CNS) greater than 45.8 µM, a GI50 (DU-145 prostate) of 2.53 µM and a TGI (DU-145 prostate) greater than 45.8 µM. For the same compound, the GI50 (U251 CNS) was 3.66 µM, the TGI (U251 CNS) was greater than 45.8 µM and the GI50 (K-562 leukemia) was 0.00458 µM. The TGI (K-562 leukemia) was greater than 45.8 µM.
